Source: publication PMC4521150, “Discovery of Novel Inhibitors and Fluorescent Probe Targeting NAMPT” (Scientific Reports, 2015)

Experiments:
recombinant human NAMPT [1] = biological target: T1, recombinant human NAMPT (Homo sapiens, UniProt P43490); test: NAMPT activity assay, IC50 determination (fluorometric detection of NMN derivative); conditions: molecular/biochemical assay, read-out: IC50 (NAMPT inhibition)
T1 construct: His tag (N); made in house; host or cells: E. coli BL21-CodonPlus (DE3)-RIL, pET21a+ vector
T1 sequence (P43490 whole entry): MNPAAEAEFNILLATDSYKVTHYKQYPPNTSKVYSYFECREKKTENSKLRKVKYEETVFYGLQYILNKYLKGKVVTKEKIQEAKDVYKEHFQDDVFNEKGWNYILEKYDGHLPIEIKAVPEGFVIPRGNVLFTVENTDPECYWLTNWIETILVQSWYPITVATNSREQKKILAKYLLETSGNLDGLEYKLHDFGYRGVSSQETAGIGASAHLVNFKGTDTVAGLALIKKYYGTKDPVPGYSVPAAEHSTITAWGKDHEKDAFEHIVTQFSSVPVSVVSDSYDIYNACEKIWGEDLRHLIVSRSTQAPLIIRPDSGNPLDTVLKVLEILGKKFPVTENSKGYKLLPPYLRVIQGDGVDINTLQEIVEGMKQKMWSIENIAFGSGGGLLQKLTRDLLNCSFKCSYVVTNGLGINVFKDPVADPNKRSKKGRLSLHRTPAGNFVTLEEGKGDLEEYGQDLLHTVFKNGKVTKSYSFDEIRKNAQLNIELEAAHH
Excerpt: Using our previously established high throughput screening (HTS) platform and recombinant human NAMPT[14][15], we performed a HTS on a chemical library containing 30000 small-molecules (Chemdiv, CA, USA). Our HTS targeting NAMPT was developed based on a fluorometric method for NAMPT activity assay by measuring the fluorescence of nicotinamide mononucleotide (NMN) derivative resulting from the NAMPT enzymatic product NMN through simple chemical reactions (Fig. 1A). […] These fluorescent and non-fluorescent compounds were further studied separately.
HTS was performed using our previously reported method. 0.5 μl stock of each compound (1 mM DMSO stock) was transferred to a 96-well PCR plate for screening. In the primary screening, 5 ng NAMPT in 20 μl reaction buffer [0.4 mM phosphoribosylpyrophosphate (PRPP, Sigma), 2 mM ATP, 0.02% BSA, 2 mM DTT, 12 mM MgCl2 and 50 mM Tris-HCl (pH = 7.5)] was added into each well, the plate was incubated at 37 °C for 5 min, then 4.5 μl substrate of NAM was added to initiate the enzyme reaction, resulting in a final concentration of 2% DMSO, 2 μg/ml NAMPT, 0.2 μM NAM and 20 μM compound. After reacting at 37 °C for 15 min, the enzyme reaction was terminated by heating at 95 °C for 1 min and cooling in an ice bath. The product of NMN was detected through the following approach: after adding 10 μl 20% acetophenone in DMSO and 10 μl 2 M KOH into each well, the mixture was vortex-mixed and kept in ice bath for 2 min. […] Finally, 85 μl mixtures in each well were transferred into a flat-bottom 96-well black plate (Greiner), and the fluorescence (F) was measured using a Tecan Infinity M200 plate reader (Tecan Group Ltd.) by setting the excitation and emission wavelength to 382 nm and 445 nm respectively. The last row of each 96-well plate includes six wells of background controls and six wells of reference controls. The relative enzyme activity (Activity%) regulated by specific compound was calculated according to equation (1): […]
To determine the IC50 of inhibitors, 0.5 μl compound stocks with various concentrations were added into 96-well plate. The plate was incubated at 37 °C for 5 min after addition of 20 μl reaction buffer containing NAMPT. […] The IC50 values were determined by non-linear fitting of the concentration-dependent curves with the four-parameter IC50 logistic equation.

recombinant human NAMPT [2] = biological target: T1, recombinant human NAMPT; test: HTS / fixed-concentration NAMPT activity screen (fluorometric); format: biochemical; conditions: 20 μM compound; analogues of the 46 non-fluorescent inhibitors
Excerpt: Using our previously established high throughput screening (HTS) platform and recombinant human NAMPT[14][15], we performed a HTS on a chemical library containing 30000 small-molecules (Chemdiv, CA, USA). Our HTS targeting NAMPT was developed based on a fluorometric method for NAMPT activity assay by measuring the fluorescence of nicotinamide mononucleotide (NMN) derivative resulting from the NAMPT enzymatic product NMN through simple chemical reactions (Fig. 1A). The 30000 compounds were dissolved with dimethyl sulfoxide (DMSO); most of compounds were soluble at 10 mM stock solution (94.1%), some compounds insoluble at 10 mM were soluble at 2.5 mM stock solution (4.4%), and the remaining compounds insoluble at 2.5 mM (1.5%) were diluted further during HTS experiments (Fig. 1B). To guarantee the quality of screening, S/N ratio, CV and Z’ factors were monitored throughout the screenings, and all three indices met the requirements of HTS (Fig. 1C–E). After a primary screen and a secondary screen of all compounds at 20 μM, 242 compounds were selected as the hits of NAMPT inhibitors (NAMPT activity < 40%), and the hit rate was ~0.8% (Fig. 1F). […] All these 55 compounds were not reported as NAMPT inhibitors previously. Among the 55 compounds, we noted 46 compounds were non-fluorescent and 9 compounds were fluorescent (Fig. 1F). These fluorescent and non-fluorescent compounds were further studied separately.
HTS was performed using our previously reported method. 0.5 μl stock of each compound (1 mM DMSO stock) was transferred to a 96-well PCR plate for screening. In the primary screening, 5 ng NAMPT in 20 μl reaction buffer [0.4 mM phosphoribosylpyrophosphate (PRPP, Sigma), 2 mM ATP, 0.02% BSA, 2 mM DTT, 12 mM MgCl2 and 50 mM Tris-HCl (pH = 7.5)] was added into each well, the plate was incubated at 37 °C for 5 min, then 4.5 μl substrate of NAM was added to initiate the enzyme reaction, resulting in a final concentration of 2% DMSO, 2 μg/ml NAMPT, 0.2 μM NAM and 20 μM compound. After reacting at 37 °C for 15 min, the enzyme reaction was terminated by heating at 95 °C for 1 min and cooling in an ice bath. The product of NMN was detected through the following approach: after adding 10 μl 20% acetophenone in DMSO and 10 μl 2 M KOH into each well, the mixture was vortex-mixed and kept in ice bath for 2 min. Then 45 μl 88% formic acid was added and the mixture was incubated at 37 °C for 10 min. Finally, 85 μl mixtures in each well were transferred into a flat-bottom 96-well black plate (Greiner), and the fluorescence (F) was measured using a Tecan Infinity M200 plate reader (Tecan Group Ltd.) by setting the excitation and emission wavelength to 382 nm and 445 nm respectively. The last row of each 96-well plate includes six wells of background controls and six wells of reference controls. The relative enzyme activity (Activity%) regulated by specific compound was calculated according to equation (1):
F0 was the averaged fluorescence of six background controls, representing zero activity from a simulated enzyme reaction with only NAMPT but no NAM and compound; F100% was the averaged fluorescence of six reference controls, representing 100% activity from intact enzyme reaction without compound perturbation.
Compounds with Activity% less than 40% were considered as inhibitors and subjected to a secondary screen inhibition validation, in which another background control (FC0), a simulated enzyme reaction with NAMPT and compound but no NAM, was introduced to eliminate the direct and/or indirect influence from compound. At this stage, the Activity% was calculated according to equation (2): […]

HepG2 cells = test: Cell viability assay (CCK-8) in HepG2 cells; format: cell-based, human; conditions: 2 μM, 48 hours of incubation
Experimental: Cell viability was determined by our previous method[27] using the Cell Counting Kit-8 (CCK-8, Dojindo, Japan). In human hepatocellular carcinoma cell line HepG2, cells were seeded in 96-well plate and starved for over 12 h with serum-free DMEM at 60~70% confluency, then treated with compounds or vehicle for 48 h. To determine the IC50 values of inhibitors, compounds with various concentrations were added into the 96-well plate. 10 μl CCK-8 solution was added to the culture medium and incubated at 37 °C for 1 h. The absorbance at 450 nm (A450) was detected by a plate reader. Each experiment was carried out in triplicate in three replicate wells. The IC50 values were determined by non-linear fitting of the concentration-dependent curves with the four-parameter IC50 logistic equation.

| SMILES | IC50 (recombinant human NAMPT [1]) | NAMPT inhibition activity at 20 μM (recombinant human NAMPT [2]) | Effect on HepG2 cell viability at 2 μM (HepG2 cells) |
| --- | --- | --- | --- |
| CC(=O)C1=C(C)Nc2ccccc2S1 [1932-0007] | 0.4086 ± 0.00183 µM |  |  |
| O=C(CSc1nc2c(c(C(F)(F)F)n1)CCc1ccccc1-2)NCCCn1ccnc1 [6466-0191] | 0.0594 ± 0.00115 µM |  |  |
| O=C(CSC1=Nc2ccccc2N=C(c2cccs2)C1)Nc1ccc2c(c1)OCCO2 [C201-1487] | 0.172 ± 0.0173 µM | Yes |  |
| O=C(CSC1=Nc2ccccc2N=C(c2ccccn2)C1)Nc1ccc2c(c1)OCCO2 [C201-1928] | 1.45 ± 0.0517 µM |  |  |
| O=C(NCc1ccc(Cl)cc1)c1ccc(CNc2c(N3CCCCC3)c(=O)c2=O)cc1 [C804-0859] | 0.704 ± 0.0167 µM |  |  |
| CC1CCN(c2c(NCc3ccc(C(=O)NCCc4ccccc4)cc3)c(=O)c2=O)CC1 [C852-0409] | 1.28 ± 0.154 µM |  |  |
| CC1CCN(c2c(NCc3ccc(C(=O)NCc4ccc(F)cc4)cc3)c(=O)c2=O)CC1 [C852-0431] | 0.869 ± 0.0672 µM |  |  |
| CCCc1cc(Nc2ccc(C(=O)NCc3cccnc3)cc2)n2nc(-c3cccnc3)nc2n1 [D515-0654] | 0.283 ± 0.0192 µM |  | significant inhibition on cell viability |
| O=C(Nc1cccnc1)c1ccc(-n2cnnn2)cc1 [D633-0045] | 0.416 ± 0.0307 µM |  |  |
| Cc1nn(CCCC(=O)Nc2cccc(F)c2)c(=O)c2c1sc1ccccc12 [E019-0970] | 0.298 ± 0.0321 µM |  |  |
| CC(=O)c1ccc(NC(=O)Cc2noc3ccccc23)cc1 [E207-0481] | 0.739 ± 0.0378 µM |  |  |
| O=C(NCc1ccccc1)c1ccc(Cn2c(=O)c3cccn3c3cccnc32)cc1 [E524-1566] | 0.14 ± 0.00731 µM |  | significant inhibition on cell viability |
| COc1ccc(CNC(=O)c2ccc(Cn3c(=O)c4cccn4c4cccnc43)cc2)cc1 [E524-1597] | 0.0759 ± 0.00351 µM |  |  |
| Cc1ccc(CNC(=O)c2ccc(Cn3c(=O)c4cccn4c4cccnc43)cc2)cc1 [E524-1599] | 0.0978 ± 0.00313 µM |  | significant inhibition on cell viability |
| CC(C)CCNC(=O)c1ccc(Cn2c(=O)c3cccn3c3cccnc32)cc1 [E524-1626] | 0.393 ± 0.00851 µM |  |  |
| Cc1cccc(CNC(=O)c2ccc(Cn3c(=O)c4cccn4c4cccnc43)cc2)c1 [E524-1627] | 0.0855 ± 0.0111 µM |  | significant inhibition on cell viability |
| O=C(NCCc1ccccc1)c1ccc(Cn2c(=O)c3cccn3c3cccnc32)cc1 [E524-1628] | 0.0709 ± 0.00074 µM |  |  |
| Cc1ccccc1CCNC(=O)c1ccc(Cn2c(=O)c3cccn3c3cccnc32)cc1 [E524-1763] | 0.253 ± 0.0179 µM |  |  |
| O=C(NCc1noc2ccccc12)NC1CCCCC1 [E567-0011] | 1.62 ± 0.0579 µM |  |  |

| SMILES | IC50 (recombinant human NAMPT [1]) | NAMPT inhibition activity at 20 μM (recombinant human NAMPT [2]) | Effect on HepG2 cell viability at 2 μM (HepG2 cells) |
| --- | --- | --- | --- |
| COc1ccc(NC(=O)NCc2noc3ccccc23)cc1Cl [E567-0014] | 0.411 ± 0.0281 µM |  |  |
| CCc1ccc(NC(=O)NCc2noc3ccccc23)cc1 [E567-0089] | 0.0626 ± 0.00289 µM |  |  |
| COc1ccc(NC(=O)NCc2noc3ccccc23)cc1 [E567-0222] | 0.171 ± 0.0107 µM |  | significant inhibition on cell viability |
| CCOC(=O)c1ccc(NC(=O)NCc2noc3ccccc23)cc1 [E567-0238] | 0.0869 ± 0.00277 µM |  |  |
| CC(=O)c1cccc(NC(=O)NCc2noc3ccccc23)c1 [E567-0248] | 0.25 ± 0.0407 µM |  |  |
| COc1ccc(CCNC(=O)NCc2noc3ccccc23)c(OC)c1 [E567-0299] | 0.202 ± 0.0176 µM |  |  |
| COc1ccc(OC)c(CCNC(=O)NCc2noc3ccccc23)c1 [E567-0302] | 0.401 ± 0.0112 µM |  |  |
| CSc1ccc(CCNC(=O)NCc2noc3ccccc23)cc1 [E567-0304] | 0.126 ± 0.00423 µM |  |  |
| CN1C(=O)C(C)(C)c2cc(S(=O)(=O)NCc3ccc(C(=O)NCc4cccnc4)cc3)ccc21 [E589-3083] | 0.116 ± 0.0131 µM |  |  |
| Cc1cc2nc(C)c(=O)n(Cc3ccc(C(=O)NCc4ccccn4)cc3)c2cc1C [F671-0199] | 0.171 ± 0.0168 µM |  |  |
| CCn1c(=O)c(=O)n(Cc2ccc(C(=O)NCc3cccc(Cl)c3)cc2)c2cccnc21 [F704-0076] | 1 ± 0.057 µM |  |  |
| CCn1c(=O)c(=O)n(Cc2ccc(C(=O)NCc3ccc(Cl)cc3)cc2)c2cccnc21 [F704-0088] | 0.296 ± 0.00761 µM |  |  |
| CCn1c(=O)c(=O)n(Cc2ccc(C(=O)NCc3ccccc3F)cc2)c2cccnc21 [F704-0231] | 1.45 ± 0.143 µM |  |  |
| CCn1c(=O)c(=O)n(Cc2ccc(C(=O)NCc3cccc(Br)c3)cc2)c2cccnc21 [F704-0251] | 0.517 ± 0.0379 µM |  |  |
| O=C(NCCCN1CCCC1=O)c1ccc(N2CCc3ccccc32)s1 [G122-1637] | 0.411 ± 0.148 µM |  |  |
| O=C(Nc1ccc(OCc2nnc(-c3ccccc3)o2)cc1)c1cnccn1 [M350-0100] | 0.0602 ± 0.00363 µM | Yes | significant inhibition on cell viability |
| COc1ccc(-c2nnc(COc3ccc(NC(=O)c4cnccn4)cc3)o2)cc1 [M350-0814] | 0.118 ± 0.0107 µM |  | significant inhibition on cell viability |
| Cc1ccccc1-c1nnc(COc2ccc(NC(=O)c3cnccn3)cc2)o1 [M350-1052] | 0.0608 ± 0.00261 µM |  |  |
